# What was measured:
# [1] = system: Echinochloa oryzoides (Ard.) Fritsch.; assay: Preemergence weed control under flooded paddy conditions, ECHORC (Watergrass (Calif.)); type: in vivo; conditions: flooded paddy; for ECHORC: herbicidal effect rating 0-9, three to four weeks after treatment; as to herbicidal effect rating, ECHORC: meaning of each grade not given here
# Cyperus iria = assay: Preemergence weed control under flooded paddy conditions, CYPIR (Rice Flatsedge); type: in vivo; conditions: flooded paddy; for CYPIR: herbicidal effect rating 0-9, three to four weeks after treatment; as to herbicidal effect rating, CYPIR: meaning of each grade not given here
# [2] = system: Cyperus serotinus, Rottb.; assay: Preemergence weed control under flooded paddy conditions, CYPSE (Flatsedge); type: in vivo; conditions: for CYPSE: herbicidal effect rating 0-9, three to four weeks after treatment; as to herbicidal effect rating, CYPSE: meaning of each grade not given here
# [3] = system: Monochoria vaginalis, Presl.; assay: Preemergence weed control under flooded paddy conditions, MOOVA (Monochoria); type: in vivo; conditions: flooded paddy; for MOOVA: herbicidal effect rating 0-9, three to four weeks after treatment; as to herbicidal effect rating, MOOVA: meaning of each grade not given here
# Sagittaria pygmaea, L. = assay: Preemergence weed control under flooded paddy conditions, SAGPY (Arrowhead (Pygmaea)); type: in vivo; conditions: flooded paddy; for SAGPY: herbicidal effect rating 0-9, three to four weeks after treatment; as to herbicidal effect rating, SAGPY: meaning of each grade not given here
# [4] = system: Oryza sativa, (L.) Tebonnet; assay: Rice tolerance to post-transplant applications under flooded paddy conditions (Example 187), ORYSAT (Rice, Tebonnet); conditions: for ORYSAT: herbicidal effect rating 0-9, three to four weeks after treatment; as to herbicidal effect rating ORYSAT: meaning of each grade not given here
# [5] = 0.0320 kg/ha, preemergence, rated three to four weeks after treatment
# [6] = 0.0620 kg/ha, preemergence, rated three to four weeks after treatment
# [7] = 0.1250 kg/ha, preemergence, rated three to four weeks after treatment
# [8] = 0.2500 kg/ha, preemergence, rated three to four weeks after treatment
# [9] = Rate 0.0313 kg/ha, preemergence, rated three to four weeks after treatment
# [10] = Rate 0.0625 kg/ha, preemergence, rated three to four weeks after treatment
# [11] = Rate 0.1250 kg/ha, preemergence, rated three to four weeks after treatment
# [12] = Rate 0.2500 kg/ha, preemergence, rated three to four weeks after treatment
# [13] = Rate 0.1250 kg/ha, rated three to four weeks after treatment
# [14] = Rate 0.2500 kg/ha, rated three to four weeks after treatment
# [15] = Rate 0.0320 kg/ha, preemergence, rated 3-4 weeks after treatment
# [16] = Rate 0.0620 kg/ha, preemergence, rated 3-4 weeks after treatment
# [17] = Rate 0.1250 kg/ha, preemergence, rated 3-4 weeks after treatment
# [18] = Rate 0.2500 kg/ha, preemergence, rated 3-4 weeks after treatment
# [19] = Rate 0.0320 kg/ha, preemergence weeds, rated three to four weeks after treatment
# [20] = Rate 0.0620 kg/ha, preemergence weeds, rated three to four weeks after treatment
# [21] = Rate 0.1250 kg/ha, preemergence weeds, rated three to four weeks after treatment
# [22] = Rate 0.2500 kg/ha, preemergence weeds, rated three to four weeks after treatment
# [23] = 0.0320 kg/ha, preemergence weeds
# [24] = 0.0620 kg/ha, preemergence weeds
# [25] = 0.1250 kg/ha, preemergence weeds
# [26] = 0.2500 kg/ha, preemergence weeds
compound,measurement,setting,value
"Cn1c(C(F)(F)F)cc(=O)n(-c2ccc3snc(C(=O)NS(=O)(=O)/C=C/c4ccccc4)c3c2)c1=O [Example 501, 1,2-Benzisothiazole-3-carboxamide, 5-[3,6-dihydro-3-methyl-2,6-dioxo-4-(trifluoromethyl)-1(2H)-pyrimidinyl]-N-(styrylsulfonyl)-, (E)-]",ECHORC herbicidal rating,[1]; [5],4.0
same,ECHORC herbicidal rating,[1]; [6],5.0
same,ECHORC herbicidal rating,[1]; [7],5.0
same,ECHORC herbicidal rating,[1]; [8],7.0
same,CYPIR herbicidal rating,Cyperus iria; [5],0.0
same,CYPIR herbicidal rating,Cyperus iria; [6],2.0
same,CYPIR herbicidal rating,Cyperus iria; [7],4.0
same,CYPIR herbicidal rating,Cyperus iria; [8],6.0
same,CYPSE herbicidal rating,[2]; [5],0.0
same,CYPSE herbicidal rating,[2]; [6],0.0
same,CYPSE herbicidal rating,[2]; [7],3.0
same,CYPSE herbicidal rating,[2]; [8],5.0
same,MOOVA herbicidal rating,[3]; [5],6.0
same,MOOVA herbicidal rating,[3]; [6],6.0
same,MOOVA herbicidal rating,[3]; [7],7.0
same,MOOVA herbicidal rating,[3]; [8],9.0
same,SAGPY herbicidal rating,"Sagittaria pygmaea, L.; [5]",2.0
same,SAGPY herbicidal rating,"Sagittaria pygmaea, L.; [6]",3.0
same,SAGPY herbicidal rating,"Sagittaria pygmaea, L.; [7]",5.0
same,SAGPY herbicidal rating,"Sagittaria pygmaea, L.; [8]",6.0
same,ORYSAT herbicidal rating (rice tolerance),"[4]; 0.0320 kg/ha, rated three to four weeks after treatment",0.0
same,ORYSAT herbicidal rating (rice tolerance),"[4]; 0.0620 kg/ha, rated three to four weeks after treatment",1.0
same,ORYSAT herbicidal rating (rice tolerance),"[4]; 0.1250 kg/ha, rated three to four weeks after treatment",3.0
same,ORYSAT herbicidal rating (rice tolerance),"[4]; 0.2500 kg/ha, rated three to four weeks after treatment",4.0
"Cn1c(C(F)(F)F)cc(=O)n(-c2ccc3snc(COCCCCl)c3c2)c1=O [Example 224, 3-{3-[(3-Chloropropoxy)methyl]-1,2-benzisothiazol-5-yl}-1-methyl-6-(trifluoromethyl)-2,4(1H,3H)-pyrimidinedione]",ECHORC herbicidal effect rating,[1]; [9],6.0
same,ECHORC herbicidal effect rating,[1]; [10],9.0
same,ECHORC herbicidal effect rating,[1]; [11],9.0
same,ECHORC herbicidal effect rating,[1]; [12],9.0
same,CYPIR herbicidal effect rating,Cyperus iria; [9],4.0
same,CYPIR herbicidal effect rating,Cyperus iria; [10],7.0
same,CYPIR herbicidal effect rating,Cyperus iria; [11],8.0
same,CYPIR herbicidal effect rating,Cyperus iria; [12],8.0
same,CYPSE herbicidal effect rating,[2]; [9],0.0
same,CYPSE herbicidal effect rating,[2]; [10],0.0
same,CYPSE herbicidal effect rating,[2]; [11],2.0
same,CYPSE herbicidal effect rating,[2]; [12],7.0
same,MOOVA herbicidal effect rating,[3]; [9],9.0
same,MOOVA herbicidal effect rating,[3]; [10],9.0
same,MOOVA herbicidal effect rating,[3]; [11],9.0
same,MOOVA herbicidal effect rating,[3]; [12],9.0
same,SAGPY herbicidal effect rating,"Sagittaria pygmaea, L.; [9]",0.0
same,SAGPY herbicidal effect rating,"Sagittaria pygmaea, L.; [10]",2.0
same,SAGPY herbicidal effect rating,"Sagittaria pygmaea, L.; [11]",4.0
same,SAGPY herbicidal effect rating,"Sagittaria pygmaea, L.; [12]",8.0
same,ORYSAT herbicidal effect rating,"[4]; Rate 0.0313 kg/ha, rated three to four weeks after treatment",6.0
same,ORYSAT herbicidal effect rating,"[4]; Rate 0.0625 kg/ha, rated three to four weeks after treatment",7.0
same,ORYSAT herbicidal effect rating,[4]; [13],8.0
same,ORYSAT herbicidal effect rating,[4]; [14],9.0
"CCCCCCC#CCCOC(=O)COc1ccc(C)cc1-c1nsc2ccc(-n3c(=O)cc(C(F)(F)F)n(C)c3=O)cc12 [Example 522, Acetic acid, {{2-{5-[3,6-dihydro-3-methyl-2,6-dioxo-4-(trifluoromethyl)-1(2H)-pyrimidinyl]-1,2-benzisothiazol-3-yl}-p-tolyl}oxy}-, 3-decynyl ester]","herbicidal effect rating, ECHORC",[1]; [15],5.5
same,"herbicidal effect rating, ECHORC",[1]; [16],6.5
same,"herbicidal effect rating, ECHORC",[1]; [17],8.0
same,"herbicidal effect rating, ECHORC",[1]; [18],9.0
same,"herbicidal effect rating, CYPIR",Cyperus iria; [15],0.0
same,"herbicidal effect rating, CYPIR",Cyperus iria; [16],0.0
same,"herbicidal effect rating, CYPIR",Cyperus iria; [17],0.0
same,"herbicidal effect rating, CYPIR",Cyperus iria; [18],2.0
same,"herbicidal effect rating, CYPSE",[2]; [15],0.0
same,"herbicidal effect rating, CYPSE",[2]; [16],0.0
same,"herbicidal effect rating, CYPSE",[2]; [17],0.0
same,"herbicidal effect rating, CYPSE",[2]; [18],0.0
same,"herbicidal effect rating, MOOVA",[3]; [15],9.0
same,"herbicidal effect rating, MOOVA",[3]; [16],9.0
same,"herbicidal effect rating, MOOVA",[3]; [17],9.0
same,"herbicidal effect rating, MOOVA",[3]; [18],9.0
same,"herbicidal effect rating, SAGPY","Sagittaria pygmaea, L.; [15]",0.0
same,"herbicidal effect rating, SAGPY","Sagittaria pygmaea, L.; [16]",0.0
same,"herbicidal effect rating, SAGPY","Sagittaria pygmaea, L.; [17]",0.0
same,"herbicidal effect rating, SAGPY","Sagittaria pygmaea, L.; [18]",0.0
same,herbicidal effect rating ORYSAT,"[4]; Rate 0.0320 kg/ha, rated 3-4 weeks after treatment",2.5
same,herbicidal effect rating ORYSAT,"[4]; Rate 0.0620 kg/ha, rated 3-4 weeks after treatment",4.0
same,herbicidal effect rating ORYSAT,"[4]; Rate 0.1250 kg/ha, rated 3-4 weeks after treatment",4.0
same,herbicidal effect rating ORYSAT,"[4]; Rate 0.2500 kg/ha, rated 3-4 weeks after treatment",4.5
"Cn1c(C(F)(F)F)cc(=O)n(-c2ccc3snc(C(N)=O)c3c2)c1=O [Example 322, 1,2-Benzisothiazole-3-carboxamide, 5-[3,6-dihydro-3-methyl-2,6-dioxo-4-(trifluoromethyl)-1(2H)-pyrimidinyl]-]","herbicidal effect rating, ECHORC",[1]; [19],9.0
same,"herbicidal effect rating, ECHORC",[1]; [20],9.0
same,"herbicidal effect rating, ECHORC",[1]; [21],9.0
same,"herbicidal effect rating, ECHORC",[1]; [22],9.0
same,"herbicidal effect rating, CYPIR",Cyperus iria; [19],4.0
same,"herbicidal effect rating, CYPIR",Cyperus iria; [20],6.0
same,"herbicidal effect rating, CYPIR",Cyperus iria; [21],7.0
same,"herbicidal effect rating, CYPIR",Cyperus iria; [22],9.0
same,"herbicidal effect rating, CYPSE",[2]; [19],5.0
same,"herbicidal effect rating, CYPSE",[2]; [20],5.0
same,"herbicidal effect rating, CYPSE",[2]; [21],6.0
same,"herbicidal effect rating, CYPSE",[2]; [22],9.0
same,"herbicidal effect rating, MOOVA",[3]; [19],5.0
same,"herbicidal effect rating, MOOVA",[3]; [20],9.0
same,"herbicidal effect rating, MOOVA",[3]; [21],9.0
same,"herbicidal effect rating, MOOVA",[3]; [22],9.0
same,"herbicidal effect rating, SAGPY","Sagittaria pygmaea, L.; [19]",3.0
same,"herbicidal effect rating, SAGPY","Sagittaria pygmaea, L.; [20]",3.0
same,"herbicidal effect rating, SAGPY","Sagittaria pygmaea, L.; [21]",3.0
same,"herbicidal effect rating, SAGPY","Sagittaria pygmaea, L.; [22]",9.0
same,herbicidal effect rating ORYSAT,"[4]; Rate 0.0320 kg/ha, rated three to four weeks after treatment",5.0
same,herbicidal effect rating ORYSAT,"[4]; Rate 0.0620 kg/ha, rated three to four weeks after treatment",5.0
same,herbicidal effect rating ORYSAT,[4]; [13],5.0
same,herbicidal effect rating ORYSAT,[4]; [14],7.0
"CCOC(=O)c1nsc2cc(F)c(-n3c(=O)cc(C(F)(F)F)n(C)c3=O)cc12 [Example 423, 1,2-Benzisothiazole-3-carboxylic acid, 5-[3,6-dihydro-3-methyl-2,6-dioxo-4-(trifluoromethyl)-1(2H)-pyrimidinyl]-6-fluoro-, ethyl ester]",ECHORC,[1]; [23],6.0
same,ECHORC,[1]; [24],9.0
same,ECHORC,[1]; [25],9.0
same,ECHORC,[1]; [26],9.0
same,CYPIR,Cyperus iria; [23],6.0
same,CYPIR,Cyperus iria; [24],7.0
same,CYPIR,Cyperus iria; [25],9.0
same,CYPIR,Cyperus iria; [26],9.0
same,CYPSE,[2]; [23],9.0
same,CYPSE,[2]; [24],9.0
same,CYPSE,[2]; [25],9.0
same,CYPSE,[2]; [26],9.0
same,MOOVA,[3]; [23],9.0
same,MOOVA,[3]; [24],9.0
same,MOOVA,[3]; [25],9.0
same,MOOVA,[3]; [26],9.0
same,SAGPY,"Sagittaria pygmaea, L.; [23]",9.0
same,SAGPY,"Sagittaria pygmaea, L.; [24]",9.0
same,SAGPY,"Sagittaria pygmaea, L.; [25]",9.0
same,SAGPY,"Sagittaria pygmaea, L.; [26]",9.0
same,ORYSAT,[4]; 0.0320 kg/ha,5.0
same,ORYSAT,[4]; 0.0620 kg/ha,6.0
same,ORYSAT,[4]; 0.1250 kg/ha,7.0
same,ORYSAT,[4]; 0.2500 kg/ha,7.0

# — patent EP0908457B1, “3-(1,2-benzisothiazol- and isoxazol-5-Y1)-2,4(1H,3H)-pyrimidinedione or thione and 3-(1,2-benzisothiazol- and isoxazol-5-y1)-4(3H)-pyrimidinone or thione herbicidal agents” (BASF AKTIENGESELLSCHAFT, priority 1997, dated 1999)
